Assay results: US20110053897A1 (IRM LLC, priority 2009, published 2011)
Read-outs that look alike come from different tables or passages of the source.

Biological target: T1, Syk kinase (Homo sapiens, UniProt P43405)
T1 construct: purchased
Test: Syk kinase inhibition, Caliper LabChip off-chip mobility-shift kinase assay
Assay type: biochemical
Conditions: read-out: Syk Enzyme IC50
How it was run: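 Purified Syk pre-incubated 15 min with compound in 100 mM HEPES pH 7.5, 1 mM DTT, 10 mM MgCl2 or MnCl2, 0.002% Brij-35, then 1.5 μM fluorescein peptide and ATP at apparent KM added; 1–1.5 h at room temperature, 4% DMSO, EDTA stop. Microfluidic mobility-shift product/substrate conversion gave % inhibition; IC50 from 12-point series (10–0.00003 μM) by 4-parameter fit.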

| IC50 (Caliper LabChip assay) [µM] | IC50 [µM] | SMILES |
| --- | --- | --- |
| 0.031 |  | CC1(Nc2nc(Nc3cc(C(C)(C)O)ncn3)cc3ccn(CC(O)CO)c(=O)c23)CC1 (centres unmarked) [compound 729] |
| 0.06 |  | COc1ncc(-c2cc(Nc3cc4ccn(CCO)c(=O)c4c(NC(C)(C)C)n3)ncn2)cn1 [compound 637] |
| 0.012 |  | CCn1ccc2cc(Nc3cnccn3)nc(N[C@H]3CC[C@H](CO)C3)c2c1=O [compound 827] |
| 0.128 |  | CC1(Cn2ccc3cc(-c4cnc(N)nc4)nc(NC4CCCC4)c3c2=O)COC1 [compound 760] |
|  | 2.22 | Cc1ccc(Nc2cc3cc[nH]c(=O)c3c(Nc3ccc(N4CCO[C@H](C)C4)c(C)c3)n2)nc1 [compound 582] |
| 0.011 |  | CC(C)(C)Nc1nc(Nc2cc(OCCO)ccn2)cc2ccn(CCO)c(=O)c12 [compound 866] |
| 2.41 |  | COCCCN(C)S(=O)(=O)c1ccc(Nc2nc(Nc3cc(C)ccn3)cc3ccn(C)c(=O)c23)cc1 [compound 651] |
| 0.122 |  | CCn1ccc2cc(Nc3cnccn3)nc(N[C@H](CO)C(C)C)c2c1=O [compound 1043] |
| 0.017 |  | CC1(Nc2nc(Nc3cnccn3)cc3ccn(CCO)c(=O)c23)CC1 [compound 838] |
| 0.072 |  | Nc1ncc(-c2cc3ccn(CCN4CCOCC4)c(=O)c3c(N[C@H]3CC[C@@H](O)CC3)n2)cn1 [compound 1029] |
| 0.113 |  | CC(C)Nc1nc(Nc2cc(-c3cccnc3)ccn2)cc2ccn(C)c(=O)c12 [compound 1046] |
| 0.307 |  | CCn1ccc2cc(Nc3nccc(O)n3)nc(N)c2c1=O [compound 803] |
| 0.024 |  | CC(C)(C)Nc1nc(Nc2cc(-n3cc(C(=O)O)cn3)ncn2)cc2ccn(CCO)c(=O)c12 [compound 888] |
| 0.009 |  | CC(C)(C)Nc1nc(Nc2cc(OC3CCN(CCO)CC3)ncn2)cc2ccn(CCO)c(=O)c12 [compound 646] |
| 0.035 |  | CC(C)(C)Nc1nc(Nc2cc(C(C)(C)O)ncn2)cc2ccn(CCO)c(=O)c12 [compound 716] |
| 0.145 |  | CCn1ccc2cc(Nc3cnccn3)nc(NCC(O)C(F)(F)F)c2c1=O (centres unmarked) [compound 779, 2-ethyl-6-(pyrazin-2-ylamino)-8-((3,3,3-trifluoro-2-hydroxypropyl)amino)-2,7-naphthyridin-1(2H)-one] |
| 0.053 |  | Cc1ccnc(Nc2cc3ccn(CCN4CCOCC4)c(=O)c3c(N[C@@H](C)CO)n2)c1 [compound 995] |

| IC50 (Caliper LabChip assay) [µM] | IC50 [µM] | SMILES |
| --- | --- | --- |
| 0.012 |  | CCn1ccc2cc(-c3cnc(N)nc3)nc(N[C@H]3CC[C@@H](O)C3)c2c1=O [compound 1039] |
| 0.018 |  | O=c1c2c(N[C@H]3CC[C@@H](O)CC3)nc(Nc3cnccn3)cc2ccn1CCCO [compound 948] |
| 0.015 |  | [2H]C(C)(O)c1cc(Nc2cc3ccn(CCO)c(=O)c3c(NC(C)(C)C)n2)ncc1F (centres unmarked) [compound 876] |
| 0.179 |  | CCn1ccc2cc(Nc3cnccn3)nc(NC(C)(C)CCO)c2c1=O [compound 783] |
| 0.064 |  | Cc1cc(-c2ccnc(Nc3cc4ccn(CCO)c(=O)c4c(NC(C)(C)C)n3)c2)ccn1 [compound 854] |
| 0.175 |  | NC(=O)Cn1ccc2cc(-c3cnc(N)nc3)nc(NC3CC(F)(F)C3)c2c1=O [compound 759] |
| 0.082 |  | CC(C)(C)Nc1nc(Nc2cc(-c3nc(CO)cs3)ccn2)cc2ccn(CCO)c(=O)c12 [compound 843] |
| 0.094 |  | CCn1ccc2cc(Nc3cc(C)ccn3)nc(N[C@@H]3CC[C@H](CO)C3)c2c1=O [compound 794] |
| 0.01 |  | O=c1c2c(NC3CCCC3)nc(Nc3cnccn3)cc2ccn1C[C@H](O)CO [compound 775] |
| 0.092 |  | CCn1ccc2cc(Nc3cc(C)ccn3)nc(N[C@H](C)CO)c2c1=O [compound 962] |
| 0.237 |  | Cn1cc(-c2cc(Nc3cc4ccn(CCO)c(=O)c4c(NC(C)(C)C)n3)ncn2)cn1 [compound 636] |
| 0.067 |  | CC(C)(C)Nc1nc(Nc2cc(-c3ccn[nH]3)ccn2)cc2ccn(CCO)c(=O)c12 [compound 690, 6-(4-(1H-pyrazol-5-yl)pyridin-2-ylamino)-8-(tert-butylamino)-2-(2-hydroxyethyl)-2,7-naphthyridin-1(2H)-one] |
| 0.137 |  | [2H]C([2H])([2H])n1ccc2cc(Nc3cc(C)c(Cl)cn3)nc(NC(C)(C)CO)c2c1=O [compound 777] |
| 0.078 |  | CC(C)(C)Nc1nc(-c2cnc(N)nc2)cc2ccn(CC(=O)N3CCOCC3)c(=O)c12 [compound 678] |
| 0.117 |  | Cc1ccnc(Nc2cc3ccn(CCO)c(=O)c3c(NCC(F)F)n2)c1 [compound 815] |
| 0.011 |  | CC1(Nc2nc(Nc3cnccn3)cc3ccn(CCO)c(=O)c23)CCC1 [compound 896] |
| 0.014 |  | Nc1ncc(-c2cc3ccn(CCO)c(=O)c3c(N[C@H]3CC[C@@H](O)CC3)n2)cn1 [compound 1028] |

More lines, now with the values behind:

| SMILES | IC50 (Caliper LabChip assay) [µM] | IC50 [µM] |
| --- | --- | --- |
| COCCN1CCN(c2n[nH]c3cc(Nc4nc(-c5cncnc5)cc5cc[nH]c(=O)c45)ccc23)CC1 [compound 214] |  | 0.017 |
| CN(C)CCn1ccc2cc(Nc3cnccn3)nc(N[C@H]3CC[C@@H](O)CC3)c2c1=O [compound 387] |  | 0.033 |
| Cc1ccnc(Nc2cc3cc[nH]c(=O)c3c(NC3CCCC3)n2)c1 [compound 292] |  | 0.176 |
| CCn1ccc2cc(Nc3cc(Cl)ccn3)nc(N[C@H]3CC[C@@H](O)CC3)c2c1=O [compound 383] |  | 0.026 |
| Cc1ccnc(Nc2cc3ccn(C)c(=O)c3c(N[C@H]3CC[C@@H](O)CC3)n2)c1 [compound 326] |  | 0.032 |
| Cc1ccnc(Nc2cc3cc[nH]c(=O)c3c(NC(C)CC(C)C)n2)c1 (centres unmarked) [compound 270] |  | 6.95 |
| Cc1ccnc(Nc2cc3ccn(CCN4CCOCC4)c(=O)c3c(NC(C)C)n2)c1 [compound 315] |  | 0.381 |
| COCCN1CCC(c2ccc(Nc3nc(-c4cncnc4)cc4cc[nH]c(=O)c34)cc2F)CC1 [compound 198] |  | 0.031 |
| CCN1CCN(CCc2ccc(Nc3nc(-c4cncnc4)cc4c(F)c[nH]c(=O)c34)cc2)CC1 [compound 438] |  | 0.289 |
| Cc1ccnc(Nc2cc3cc[nH]c(=O)c3c(N[C@@H](C)CO)n2)c1 [compound 294] |  | 0.101 |
| COc1ncc(-c2cc3c(F)c[nH]c(=O)c3c(Nc3ccc(N4CCOCC4)cc3)n2)cn1 [compound 430] |  | 0.12 |
| Cc1ccnc(Nc2cc3ccn(C)c(=O)c3c(NC[C@H]3CCCO3)n2)c1 [compound 512] |  | 0.158 |
| CCn1ccc2cc(Nc3cc(C)ccn3)nc(NC(C)(C)C)c2c1=O [compound 525] |  | 0.242 |
| CCCc1ccnc(Nc2cc3cc[nH]c(=O)c3c(NC(C)C)n2)c1 [compound 502] |  | 0.164 |
| Cn1ccc2cc(Nc3cnccn3)nc(Nc3ccc(C(=O)N4CCOCC4)cc3)c2c1=O [compound 476] |  | 0.35 |
| CCN(CC)CCNC(=O)c1ccc(Nc2nc(Nc3cc(C)ccn3)cc3ccn(C)c(=O)c23)cc1 [compound 331] |  | 0.748 |
| COc1cncc(-c2cc3cc[nH]c(=O)c3c(Nc3ccc(CCN4CCC(OC)CC4)cc3)n2)n1 [compound 23] |  | 0.039 |
| O=c1[nH]ccc2cc(Nc3ccc([N+](=O)[O-])cn3)nc(Nc3ccc(N4CCOCC4)cc3)c12 [compound 565] |  | 0.71 |
| CCN1CCN(Cc2n[nH]c3cc(Nc4nc(-c5cnc(OC)nc5)cc5cc[nH]c(=O)c45)ccc23)CC1 [compound 204] |  | 0.048 |
| COc1cncc(-c2cc3cc[nH]c(=O)c3c(Nc3ccc(N4CC5(CNC5)C4)cc3)n2)n1 [compound 5] |  | 0.316 |

| SMILES | IC50 (Caliper LabChip assay) [µM] | IC50 [µM] |
| --- | --- | --- |
| C[C@H](CO)Nc1nc(Nc2ccccn2)cc2cc[nH]c(=O)c12 [compound 299] |  | 0.068 |
| Cc1ncc(-c2cc3cc[nH]c(=O)c3c(Nc3ccc(C4CCN(CCCF)CC4)c(C)c3)n2)cn1 [compound 72] |  | 0.012 |
| Cc1ccnc(Nc2cc3ccn(C)c(=O)c3c(NC[C@@H](C)O)n2)c1 [compound 511] |  | 0.086 |
| C[C@@H](CO)Nc1nc(Nc2cnccn2)cc2ccn(C)c(=O)c12 [compound 327] |  | 0.12 |
| Cn1ccc2cc(Nc3cc(Cl)ccn3)nc(NC3CCC3)c2c1=O [compound 544] |  | 0.81 |
| O=c1[nH]ccc2cc(-c3cncnc3)nc(Nc3ccc(CCn4cncn4)cc3)c12 [compound 34] |  | 0.18 |
| CCC(C)Nc1nc(Nc2cc(C)ccn2)cc2cc[nH]c(=O)c12 (centres unmarked) [compound 262] |  | 0.201 |
| COc1cncc(-c2cc3cc[nH]c(=O)c3c(Nc3ccc(C4CN(CCO)C4)cc3)n2)n1 [compound 147] |  | 0.004 |
| CCC(C)Nc1nc(Nc2ccccn2)cc2cc[nH]c(=O)c12 (centres unmarked) [compound 263] |  | 0.756 |
| Nc1ncc(-c2cc3cc[nH]c(=O)c3c(N[C@@H]3CCC[C@@H]3O)n2)cn1 [compound 182] |  | 0.03 |
| O=c1c2c(N[C@H]3CCOC3)nc(Nc3cnccn3)cc2ccn1CCO [compound 375] |  | 0.014 |
| Cc1ccnc(Nc2cc3cc[nH]c(=O)c3c(NCCC3CCCN3C)n2)c1 (centres unmarked) [compound 562] |  | 0.288 |
| COc1cncc(-c2cc3cc[nH]c(=O)c3c(Nc3ccc(C4CCN(CCC#N)CC4)c(C)c3)n2)n1 [compound 128] |  | 0.079 |
| CCn1ccc2cc(Nc3ncccn3)nc(NC[C@@H]3CC[C@@H](O)C3)c2c1=O [compound 413] |  | 0.0462 |
| CCc1ccnc(Nc2cc3cc[nH]c(=O)c3c(NC3CC3)n2)c1 [compound 521] |  | 0.131 |
| COCCCc1cc2cc[nH]c(=O)c2c(Nc2ccc(C3CCN(C4CC4)CC3)c(C)c2)n1 [compound 238] |  | 1.29 |
| CC(C)(C)Nc1nc(Nc2cc(C3(O)COC3)ccn2)cc2ccn(CCO)c(=O)c12 [Compound No. 609, 8-(tert-butylamino)-2-(2-hydroxyethyl)-6-(4-(3-hydroxyoxetan-3-yl)pyridin-2-ylamino)-2,7-naphthyridin-1(2H)-one] | 0.012 |  |
| Cc1ccnc(Nc2cc3ccn(C)c(=O)c3c(Nc3ccc(C4CCN(C)CC4)cc3)n2)c1 [compound 309] |  | 0.016 |
| CCOCCN1CCC(c2ccc(Nc3nc(-c4cncc(OC)n4)cc4cc[nH]c(=O)c34)cc2C)CC1 [compound 85] |  | 0.078 |
| Cc1ccnc(Nc2cc3cc[nH]c(=O)c3c(NC(C)CO)n2)c1 (centres unmarked) [compound 265] |  | 0.018 |
